Experimental data published in US8227205B2 (priority 2007, dated 2012).

Tests used:
Assay type in all cases: cell-based
K562cells = test: CytoTox-Glo dual measurement of cell viability and cytotoxicity (dead cell luminescence, then digitonin lysis, subtractive live cell signal); details: K562 cells, 5,000 cells/well, 24 hours, two-fold serial dilution from 10 μM, FIG. 11A
Description: (§1) Campothecin was two-fold serially-diluted in RPMI 1640+10% FBS medium from 10 μM and added in 50 μL volumes. The cells were incubated at 37° C., 5% CO2 for 24 hours. CytoTox-Glo reagent was prepared as described above and added to each well in an equal volume (100 μL). After 15 minutes of incubation, the dead cell signal was measured. Digitonin (20 mg/mL in DMSO) was diluted in CytoTox-Glo buffer and added in 20 μL volumes to each well to facilitate complete cell lysis. Luminescence was measured after 15 minutes of incubation at room temperature.
The luminescent signal collected after lysis was adjusted to reflect the “live cell” contribution by subtracting the initial dead cell signal. The data were plotted as the non-viable and viable signals versus the concentration of campothecin (FIG. 11A). […] If only viability was measured, one might conclude that the compound was substantially cytotoxic. If only cytotoxicity was measured, one might conclude that the compound was not very potent. Either interpretation would be faulty.

HeLa cells = test: as above; details: HeLa cells, 10,000 cells/well, 24 hours, FIG. 11B/11C
Description: In FIG. 11B, HeLa cells were seeded at a 10,000 cells/well in DMEM+10% FBS in 50 μl volumes and incubated overnight at 37° C. in 5% CO2. Nocodazole was two-fold serially diluted in DMEM+10% FBS in a separate plate from 2 μM and added in 50 μL it volumes (highest final dosage is 1,000 nM). The cells were allowed to incubate with the compound for 24 hours. CytoTox-Glo Reagent was prepared as above and added to each well in an equal volume (100 μL). After 15 minutes of incubation, the dead cell signal was collected. Digitonin (20 mg/mL in DMSO) was diluted in CytoTox-Glo buffer and added in 20 μL volumes to each well to facilitate complete cell lysis. Luminescence was measured after 15 minutes of incubation at room temperature.
The luminescent signal collected after lysis was adjusted to reflect the “live cell” contribution by subtracting the initial dead cell signal. The data were plotted as the non-viable and viable signals versus the concentration of nocodazole.
In FIG. 11C, HeLa cells were seeded at a 10,000 cells/well in DMEM+10% FBS in 50 μL volumes and incubated overnight at 37° C. in 5% CO2. Colchicine was two-fold serially diluted in DMEM+10% FBS in a separate plate from 1,000 nM and added in 50 μL volumes (highest final dosage was 500 nM). The cells were allowed to incubate with the compound for 24 hours. […] Luminescence was measured after 15 minutes of incubation at room temperature. […]

Jurkat cells = test: CytoTox-Glo live and dead cell luminescence assay; details: Jurkat cells, 10,000 cells/well, 6 hours, FIG. 5/FIG. 7
Description: Ionomycin (a calcium ionophore which affects calcium flux across cell membranes, and therefore a model necrosis inducing agent at high concentrations) was two fold serially diluted from 100 μM in RPMI 1640+10% FBS in 50 μL volumes. Jurkat cells were added to 10,000 cells/well in a 50 μL volume. The plate was shaken briefly using an orbital shaker and then incubated for 6 hours at 37° C. CytoTox-Glo Reagent was prepared as above and added to each well in a equal volume (100 μL) per well. The plate was incubated at room temperature for 15 minutes and the dead cell signal measured using a BMG PolarStar. Digitonin (20 mg/mL in DMSO) was diluted to 300 μg/mL in CytoTox-Glo buffer and added in 20 μL volumes per well to facilitate complete cellular lysis. Luminescence was measured after 15 minutes of incubation at room temperature.
The luminescent signal collected after lysis was adjusted to reflect the “live cell” contribution by subtracting the initial dead cell signal. […]
Staurosporine (multiple mechanism apoptosis inducer) was two fold serially diluted from 20 μM in RPMI 1640+10% FBS in a microwell plate in 50 μL, volumes. […] The plate was incubated at room temperature for 15 minutes and the dead cell signal measured using a BMG PolarStar. […] Luminescence was measured after 15 minutes of incubation at room temperature. […]

DU-145 cells = test: CytoTox-Glo live and dead cell luminescence assay; details: DU-145 cells, 5,000 cells/well, 48 hours, FIG. 10A
Description: as §1, with “DU-145 cells were seeded at a density of 5,000 cells/well in 50 μL of MEM+10% FBS and allowed to attach overnight. Epoxomicin (a proteasome inhibitor)” for “Campothecin”, “serially diluted from 5 μM” for “two-fold serially-diluted”, “MEM+10%” for “RPMI 1640+10%”, “FBS” for “FBS medium from 10 μM”, “with the compound” for “at 37° C., 5% CO2”, “48” for “24”
The luminescent signal collected after lysis was adjusted to reflect the “live cell” contribution by subtracting the initial dead cell signal. The data were plotted as the non-viable and viable signals versus the concentration of epoxomicin (FIG. 10A). […] The data also represents yet another toxin and mechanistic form of cell death.

## CC[C@@]1(O)C(=O)OCc2c1cc1n(c2=O)Cc2cc3ccccc3nc2-1 [campothecin, Campothecin]
K562cells
  non-viable and viable signals versus the concentration of compound (viability and cytotoxicity): early cytotoxicity because of cell-cycle arrest

## COc1cc2c(c(OC)c1OC)-c1ccc(OC)c(=O)cc1[C@@H](NC(C)=O)CC2 [colchicine, Colchicine]
HeLa cells
  non-viable and viable signals versus the concentration of compound (viability and cytotoxicity): viability is reduced because of the cytotoxicity of the compound

## C[C@H](CCC(=O)O)C[C@H](C)C[C@H](C)C(=O)/C=C(\O)[C@H](C)C[C@H](C)C/C=C/[C@@H](C)[C@@H](O)[C@@H](C)[C@@H](O)C[C@@H]1CC[C@@](C)([C@H]2CC[C@@](C)([C@@H](C)O)O2)O1 [ionomycin, Ionomycin]
Jurkat cells
  dead and live cell signals versus the concentration of compound: live and dead cells were inversely complimentary

## COC(=O)Nc1nc2ccc(C(=O)c3cccs3)cc2[nH]1 [nocodazole, Nocodazole]
HeLa cells
  non-viable and viable signals versus the concentration of compound (viability and cytotoxicity): viability and cytotoxicity are ratiometric

## CC[C@H](C)[C@H](NC(=O)[C@H]([C@@H](C)CC)N(C)C(C)=O)C(=O)N[C@H](C(=O)N[C@@H](CC(C)C)C(=O)[C@@]1(C)CO1)[C@@H](C)O [epoxomicin, Epoxomicin]
DU-145 cells
  non-viable and viable signals versus the concentration of compound: viable and non-viable cells were inversely complimentary

## CN[C@@H]1C[C@H]2O[C@@](C)([C@@H]1OC)n1c3ccccc3c3c4c(c5c6ccccc6n2c5c31)C(=O)NC4 [Staurosporine]
Jurkat cells
  dead and live cell signals versus the concentration of compound: live and dead cells were inversely complimentary
